Results on ten compounds are retold here after BindingDB's records for patent US20240124479 (Shanghai Meiyue Biotech Development Co., 2024).

As usually defined, the IC50 is the concentration that inhibits the measured activity by half.

This assay concerns the target T1, Pantetheinase (Homo sapiens, UniProt O95497).
T1 sequence (O95497 whole entry): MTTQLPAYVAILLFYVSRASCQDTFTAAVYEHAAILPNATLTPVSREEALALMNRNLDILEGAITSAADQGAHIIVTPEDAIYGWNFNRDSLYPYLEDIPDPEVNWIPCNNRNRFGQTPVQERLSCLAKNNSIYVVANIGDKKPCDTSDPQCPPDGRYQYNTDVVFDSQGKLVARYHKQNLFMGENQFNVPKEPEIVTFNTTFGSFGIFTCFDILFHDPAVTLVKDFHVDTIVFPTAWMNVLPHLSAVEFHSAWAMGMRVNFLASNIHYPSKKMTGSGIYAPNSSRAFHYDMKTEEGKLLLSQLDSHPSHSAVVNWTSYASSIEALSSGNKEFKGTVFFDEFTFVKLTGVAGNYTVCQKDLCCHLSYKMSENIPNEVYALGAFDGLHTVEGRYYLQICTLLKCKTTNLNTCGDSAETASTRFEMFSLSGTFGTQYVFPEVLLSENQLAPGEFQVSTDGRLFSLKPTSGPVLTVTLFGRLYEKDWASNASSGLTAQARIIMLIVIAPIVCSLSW
Kind of assay: Vanin-1 Recombinant Enzyme Activity Inhibition Assay.
Experimental: A certain mass of the compound was weighed precisely, and prepared with DMSO and reaction buffer (50 mM Tris base, 50 mM KCl, 1.6 mM cysteamine, 0.005% Brij 35, pH 8.0, prepared when using) to a maximum concentration of 10000 nM, then diluted in a 4-fold gradient, and prepared into 10 compound working solutions with different concentrations;for the activity inhibition reaction of recombinant human Vanin-1 (Biorab, JN0618), 2.5 μL of compound working solution and 5 μL of recombinant human Vanin-1 protein were first mixed.
Regarding `CC(=O)N(C)[C@H]1CCN(C(=O)c2cnc(NC(C)c3ccc(F)cc3Cl)nc2)C1` (stereo not given in full) [US20240124479, Compound 39], the IC50 is 1.8 nM. As for `CC(=O)N(C)[C@H]1CCN(C(=O)c2cnc(NC(C)c3ccc(C(F)(F)F)cc3F)nc2)C1` (stereo not given in full) [US20240124479, Compound 41], the IC50 was 0.2 nM.

In the case of `O=C(c1cnc(NCc2ccccc2)nc1)N1CCC2(CCOCC2)C1` [US20240124479, Compound 5], the half-maximal inhibitory concentration (IC50) is 65 nM.

In the case of `C[C@H](Nc1ncc(C(=O)N2CCC3(CCOCC3)C2)cn1)c1ccc(C(F)(F)F)cc1Cl` [US20240124479, Compound 29], the IC50 is 0.4 nM. Consider `O=C(c1cnc(NCc2ccc(F)cc2F)nc1)N1CCC2(CCOCC2)C1` [US20240124479, Compound 12], for which the IC50 was 17 nM. Then `C[C@@H](Nc1ncc(C(=O)N2CCC3(CCOCC3)C2)cn1)c1ccc(C(F)(F)F)cc1Cl` [US20240124479, Compound 28], with 0.8 nM; and `CC(Nc1ncc(C(=O)N2CCC3(CCOCC3)C2)cn1)c1ccccc1` (stereo not given) [US20240124479, Compound 6], with 6 nM. For the compound `CC(=O)N(C)[C@H]1CCN(C(=O)c2cnc(N[C@H](C)c3ccc(C(F)(F)F)cc3F)nc2)C1` [US20240124479, Compound 41-P2], the IC50 was found to be 0.3 nM. `CC(Nc1ncc(C(=O)N2CCC3(CCOCC3)C2)cn1)c1ccc(OC(F)F)cc1Cl` (stereo not given) [US20240124479, Compound 27]: the IC50 is 0.4 nM.

For the compound `CC(=O)N(C)[C@H]1CCN(C(=O)c2cnc(NC(C)c3c(F)cccc3C(F)(F)F)nc2)C1` (stereo not given in full) [US20240124479, Compound 38], the IC50 came to 0.1 nM.
